According to patent publication US20240115547A1, “PSYCHOTROPIC AGENTS AND USES THEREOF” (LB PHARMACEUTICALS INC., priority 2021, published 2024):

Tested on: Dopamine (e.g., D2/D3)
Assay: Dopamine RO % by raclopride PET after LB-102, various dosage regimens (Example 3)
Type: in vivo, human
Conditions: for Dopamine RO % (Caudate + Putamen): group mean
Protocol: Healthy subjects were dosed orally with LB102 of 50 mg QD (n=4), 75 mg QD (n=4), 100 mg QD (n=4), 50 mg SS (n=2), or 100 mg SS (n=2). Subjects were, on average, 33 years old. Subjects dosed QD were given a single dose on day 1 after which PET scans were obtained; and subjects dosed SS, i.e., steady state, were dosed once a day for 4 days and PET scans were obtained after dosing on Day 4.
Dynamic […] raclopride PET scans were obtained 0 h, 2.5 h, 7.5 h, and 23.5 h after LB-102 administration for the 50 mg and 100 mg QD treatment groups and after LB-102 administration of Day 4 for the 50 mg SS and 100 mg SS treatment groups; and 0 h, 3.5 h, 23.5 h, and 47.5 h after LB-102 administration for the 75 mg QD treatment group. Dopamine % RO were calculated using the STRM method (https://pubmed.ncbi.nlm.nih.gov/9345505/, which is incorporated herein by reference) and the combined RO % (average of caudate and putamen RO %) are shown as squares FIGS. 5A (50 mg QD), 5B (75 mg QD), 5C (100 mg QD); and FIGS. 6A (50 mg SS Day 4) and 6B (100 mg SS Day 4); and summarized in Table 3-A below.
Dynamic ^11C raclopride PET scan results for calculation of dopamine RO % were measured in caudate, putamen, thalamus, and temporal lobe of each subject tested, and are summarized in Tables 3-B to 3-F below.

[1] = 75 mg QD, Subject 3, 3.5 h after LB-102 admin.
[2] = 75 mg QD, Subject 3, 23.5 h after LB-102 admin.
[3] = 75 mg QD, Subject 3, 47.5 h after LB-102 admin.
[4] = 75 mg QD, Subject 4, 3.5 h after LB-102 admin.
[5] = 75 mg QD, Subject 4, 23.5 h after LB-102 admin.
[6] = 75 mg QD, Subject 4, 47.5 h after LB-102 admin.
[7] = 100 mg QD, Subject 1, 2.5 h after LB-102 admin.
[8] = 100 mg QD, Subject 1, 7.5 h after LB-102 admin.
[9] = 100 mg QD, Subject 1, 23.5 h after LB-102 admin.
[10] = 100 mg QD, Subject 2, 2.5 h after LB-102 admin.
[11] = 100 mg QD, Subject 2, 7.5 h after LB-102 admin.
[12] = 100 mg QD, Subject 2, 23.5 h after LB-102 admin.
[13] = 100 mg QD, Subject 3, 2.5 h after LB-102 admin.
[14] = 100 mg QD, Subject 3, 7.5 h after LB-102 admin.
[15] = 100 mg QD, Subject 3, 23.5 h after LB-102 admin.
[16] = 100 mg QD, Subject 4, 2.5 h after LB-102 admin.
[17] = 100 mg QD, Subject 4, 7.5 h after LB-102 admin.
[18] = 100 mg QD, Subject 4, 23.5 h after LB-102 admin.
[19] = 100 mg SS (Day 4), Subject 3, ~3 h after LB-102 admin.
[20] = 100 mg SS (Day 4), Subject 3, ~8 h after LB-102 admin.
[21] = 100 mg SS (Day 4), Subject 3, ~24 h after LB-102 admin.
[22] = 100 mg SS (Day 4), Subject 4, ~3 h after LB-102 admin.
[23] = 100 mg SS (Day 4), Subject 4, ~8 h after LB-102 admin.
[24] = 100 mg SS (Day 4), Subject 4, ~24 h after LB-102 admin.

Compound: CCN1CCCC1CNC(=O)c1cc(S(=O)(=O)CC)c(NC)cc1OC (stereo not shown) [LB-102]
- Dopamine RO % Putamen [1]: 50%
- Dopamine RO % Temporal lobe [1]: 28%
- Dopamine RO % Thalamus [1]: 37%
- Dopamine RO % Caudate [2]: 69%
- Dopamine RO % Putamen [2]: 53%
- Dopamine RO % Temporal lobe [2]: 20%
- Dopamine RO % Thalamus [2]: 36%
- Dopamine RO % Caudate [3]: 52%
- Dopamine RO % Putamen [3]: 38%
- Dopamine RO % Temporal lobe [3]: 16%
- Dopamine RO % Thalamus [3]: 20%
- Dopamine RO % Caudate [4]: 5%
- Dopamine RO % Putamen [4]: 2%
- Dopamine RO % Temporal lobe [4]: −2%
- Dopamine RO % Thalamus [4]: 5%
- Dopamine RO % Caudate [5]: 48%
- Dopamine RO % Putamen [5]: 37%
- Dopamine RO % Temporal lobe [5]: 27%
- Dopamine RO % Thalamus [5]: 21%
- Dopamine RO % Caudate [6]: 13%
- Dopamine RO % Putamen [6]: 12%
- Dopamine RO % Temporal lobe [6]: −6%
- Dopamine RO % Thalamus [6]: −25%
- Dopamine RO % (Caudate + Putamen) (100 mg QD, 0 h after LB-102 administration): 0%
- Dopamine RO % (Caudate + Putamen) (100 mg QD, 3 h after LB-102 administration): 41%
- Dopamine RO % (Caudate + Putamen) (100 mg QD, 8 h after LB-102 administration): 70%
- Dopamine RO % (Caudate + Putamen) (100 mg QD, 24 h after LB-102 administration): 69%
- Dopamine RO % Caudate [7]: 39%
- Dopamine RO % Putamen [7]: 32%
- Dopamine RO % Temporal lobe [7]: 18%
- Dopamine RO % Thalamus [7]: 28%
- Dopamine RO % Caudate [8]: 75%
- Dopamine RO % Putamen [8]: 67%
- Dopamine RO % Temporal lobe [8]: 24%
- Dopamine RO % Thalamus [8]: 40%
- Dopamine RO % Caudate [9]: 76%
- Dopamine RO % Putamen [9]: 68%
- Dopamine RO % Temporal lobe [9]: 13%
- Dopamine RO % Thalamus [9]: 26%
- Dopamine RO % Caudate [10]: 56%
- Dopamine RO % Putamen [10]: 52%
- Dopamine RO % Temporal lobe [10]: 17%
- Dopamine RO % Thalamus [10]: 42%
- Dopamine RO % Caudate [11]: 78%
- Dopamine RO % Putamen [11]: 75%
- Dopamine RO % Temporal lobe [11]: 17%
- Dopamine RO % Thalamus [11]: 49%
- Dopamine RO % Caudate [12]: 72%
- Dopamine RO % Putamen [12]: 66%
- Dopamine RO % Temporal lobe [12]: 22%
- Dopamine RO % Thalamus [12]: 43%
- Dopamine RO % Caudate [13]: 50%
- Dopamine RO % Putamen [13]: 46%
- Dopamine RO % Temporal lobe [13]: 20%
- Dopamine RO % Thalamus [13]: 34%
- Dopamine RO % Caudate [14]: 84%
- Dopamine RO % Putamen [14]: 77%
- Dopamine RO % Temporal lobe [14]: 24%
- Dopamine RO % Thalamus [14]: 46%
- Dopamine RO % Caudate [15]: 76%
- Dopamine RO % Putamen [15]: 69%
- Dopamine RO % Temporal lobe [15]: 22%
- Dopamine RO % Thalamus [15]: 39%
- Dopamine RO % Caudate [16]: 26%
- Dopamine RO % Putamen [16]: 25%
- Dopamine RO % Temporal lobe [16]: 10%
- Dopamine RO % Thalamus [16]: 31%
- Dopamine RO % Caudate [17]: 55%
- Dopamine RO % Putamen [17]: 49%
- Dopamine RO % Temporal lobe [17]: 15%
- Dopamine RO % Thalamus [17]: 49%
- Dopamine RO % Caudate [18]: 68%
- Dopamine RO % Putamen [18]: 56%
- Dopamine RO % Temporal lobe [18]: 15%
- Dopamine RO % Thalamus [18]: 39%
- Dopamine RO % Caudate [19]: 84%
- Dopamine RO % Putamen [19]: 80%
- Dopamine RO % Temporal lobe [19]: 19%
- Dopamine RO % Thalamus [19]: 50%
- Dopamine RO % Caudate [20]: 86%
- Dopamine RO % Putamen [20]: 83%
- Dopamine RO % Temporal lobe [20]: 18%
- Dopamine RO % Thalamus [20]: 51%
- Dopamine RO % Caudate [21]: 80%
- Dopamine RO % Putamen [21]: 73%
- Dopamine RO % Temporal lobe [21]: 23%
- Dopamine RO % Thalamus [21]: 48%
- Dopamine RO % Caudate [22]: 88%
- Dopamine RO % Putamen [22]: 79%
- Dopamine RO % Temporal lobe [22]: 32%
- Dopamine RO % Thalamus [22]: 78%
- Dopamine RO % Caudate [23]: 89%
- Dopamine RO % Putamen [23]: 80%
- Dopamine RO % Temporal lobe [23]: 25%
- Dopamine RO % Thalamus [23]: 80%
- Dopamine RO % Caudate [24]: 83%
- Dopamine RO % Putamen [24]: 72%
- Dopamine RO % Temporal lobe [24]: 31%
- Dopamine RO % Thalamus [24]: 69%
- Dopamine RO % (Caudate + Putamen) (100 mg SS (once a day for 4 days), 3 h after Day 4 administration): 88%
- Dopamine RO % (Caudate + Putamen) (100 mg SS (once a day for 4 days), 8 h after Day 4 administration): 82%
- Dopamine RO % (Caudate + Putamen) (100 mg SS (once a day for 4 days), 24 h after Day 4 administration): 76%
- dopamine RO after plasma concentration dropped (after combined plasma concentration of LB-102 and amisulpride dropped sub 10 ng/mL): persisted significantly
